Measured values reported in patent US9521850B2 (University of Florida Research Foundation, Incorporated, priority 2012, dated 2016).
Converted amounts (≈) assume the structure as drawn.

Experiments:
[1] = target: SecA of Ca. L. asiaticus (Candidatus Liberibacter asiaticus, UniProt A0ABM5NFG5); experiment: biochemical
[2] = tested on: A. tumefaciens; experiment: microbe, parasite or virus in culture; assay type: cell-based; settings: Agrobacterium tumefaciens, 24 h
[3] = tested on: CLAS; experiment: CLAS transmission rate using graft-based approach (Example 3); assay type: in vivo; settings: budwood treated at 500 μg/ml, grafted onto Valencia trees
Procedure: HLB-infected budwoods were collected in HLB infected grove in teaching block at CREC. The presence of CLAS titers in budwood was confirmed by qPCR.
C16 and streptomycin were applied at the rate of 500 μg/ml; water-treated budwood was used as check. The budwoods were placed in a glass bottle containing either treatment or water as check. The glass bottles were kept in a ventilation hood with light on to increase the evaporation rate, therefore, promoting the uptake of antibiotics. Leaf and bark samples were collected from each budwood and 100 mg were accurately weighed and used for DNA extraction with Promega genomic DNA extraction kit. CLAS populations in each sample were determined using standard qPCR protocol. Each DNA sample was run in triplicate wells.
After overnight treatment, the antibiotic-treated budwood was grafted onto 2-3 years old Valencia trees. A total of 15 trees were grafted for each treatment. […] Four leaves from the main stem of Valencia trees were sampled for DNA extraction and determination of CLAS populations.

[4] = tested on: Liberibacter crescens; experiment: microbe, parasite or virus in culture; assay type: cell-based
[5] = tested on: Rhizobium etli; experiment: microbe, parasite or virus in culture; assay type: cell-based
[6] = tested on: Bradyrhizobium japonicum; experiment: microbe, parasite or virus in culture; assay type: cell-based
[7] = tested on: Xanthomonas citri; experiment: microbe, parasite or virus in culture; assay type: cell-based, Xanthomonas citri subsp. citri
[8] = tested on: Mesorhizobium loti; experiment: microbe, parasite or virus in culture; assay type: cell-based
[9] = tested on: Sinorhizobium meliloti; experiment: microbe, parasite or virus in culture; assay type: cell-based
[10] = tested on: Agrobacterium tumefaciens; experiment: microbe, parasite or virus in culture; assay type: cell-based
[11] = tested on: CLAS populations; experiment: Effect on CLAS populations, mean Ct by quantitative PCR (Example 2)

Row | Compound | IC50 [1] [µM] | MBC [2] [mg/L] | MBC ([4]; 24 h) [mg/L] | MIC ([4]; 24 h) [mg/L] | MBC ([4]; 120 h) [mg/L] | MIC ([4]; 120 h) [mg/L] | MBC ([5]; 24 hrs) [mg/L] | MIC ([5]; 24 hrs) [mg/L] | MBC ([5]; 120 hrs) [mg/L] | MIC ([5]; 120 hrs) [mg/L] | MBC ([6]; 24 hrs) [mg/L] | MIC ([6]; 24 hrs) [mg/L] | MBC ([6]; 120 hrs) [mg/L] | MIC ([6]; 120 hrs) [mg/L] | MBC [7] [mg/L] | MIC [7] [mg/L] | MBC [8] [mg/L] | MIC [8] [mg/L] | MBC [9] [mg/L] | MIC [9] [mg/L] | other results
1 | CCc1nnc(NC(=O)c2cc3c([nH]c4ccccc43)c(C)n2)s1 [Compound C16, N-(5-ethyl-1,3,4-thiadiazol-2-yl)-1-methyl-9H-beta-carboline-3-carboxamide] | 0.25 | 256 (≈ 759 µM) | 16 (≈ 47.4 µM) | 8 (≈ 23.7 µM) | 32 (≈ 94.8 µM) | 16 (≈ 47.4 µM) | 16 (≈ 47.4 µM) | 16 (≈ 47.4 µM) | 32 (≈ 94.8 µM) | 32 (≈ 94.8 µM) | 16 (≈ 47.4 µM) | 16 (≈ 47.4 µM) | 32 (≈ 94.8 µM) | 32 (≈ 94.8 µM) | 32 (≈ 94.8 µM) | 16 (≈ 47.4 µM) | 16 (≈ 47.4 µM) | 8 (≈ 23.7 µM) | 64 (≈ 190 µM) | 32 (≈ 94.8 µM) | inhibition of ATPase activity of SecA, in words [1]: high activity; CLAS transmission rate (% trees tested positive for CLAS) ([3]; 3 months after grafting): 6.7%; CLAS transmission rate (% trees tested positive for CLAS) ([3]; 6 months after grafting): 80%; MBC [10]: 128 mg/L (≈ 379 µM); MIC [10]: 64 mg/L (≈ 190 µM); mean Ct value (CLAS populations) ([11]; 2 days after treatment): 23.76 a; mean Ct value (CLAS populations) ([11]; 4 days after treatment): 25.43 b; mean Ct value (CLAS populations) ([11]; Before treatment): 22.71 a; CLAS population reduction as compared to water-treated control ([11]; P<0.05, Fisher's LSD): significant effect
2 | COc1cc(-c2cc(-c3ccccc3)nc3sc(C(=O)O)c(N)c23)cc(OC)c1OC [Compound C17, 3-amino-6-phenyl-4-(3,4,5-trimethoxy-phenyl)thieno [2,3-b]pyridine-2-carboxylic acid] | 0.92 | 256 (≈ 586 µM) | 16 (≈ 36.7 µM) | 16 (≈ 36.7 µM) | 32 (≈ 73.3 µM) | 32 (≈ 73.3 µM) | 64 (≈ 147 µM) | 32 (≈ 73.3 µM) | 64 (≈ 147 µM) | 32 (≈ 73.3 µM) | 32 (≈ 73.3 µM) | 16 (≈ 36.7 µM) | 64 (≈ 147 µM) | 32 (≈ 73.3 µM) | 32 (≈ 73.3 µM) | 16 (≈ 36.7 µM) | 32 (≈ 73.3 µM) | 16 (≈ 36.7 µM) | 32 (≈ 73.3 µM) | 16 (≈ 36.7 µM) | MBC [10]: 64 mg/L (≈ 147 µM); MIC [10]: 64 mg/L (≈ 147 µM)
3 | COc1ccc(NC(=O)C2(NC(=O)c3ccc(-n4cnnn4)cc3)CCCCC2)cc1 [Compound C18, N-(1-{[(4-methoxy-phenyl)amino]carbonyl}cyclo-hexyl)-4-(1H-tetrazol-1-yl)benzamide] | 0.48 | 256 (≈ 609 µM) | 8 (≈ 19 µM) | 8 (≈ 19 µM) | 16 (≈ 38.1 µM) | 16 (≈ 38.1 µM) | 16 (≈ 38.1 µM) | 16 (≈ 38.1 µM) | 32 (≈ 76.1 µM) | 32 (≈ 76.1 µM) | 8 (≈ 19 µM) | 8 (≈ 19 µM) | 16 (≈ 38.1 µM) | 16 (≈ 38.1 µM) | 32 (≈ 76.1 µM) | 16 (≈ 38.1 µM) | 32 (≈ 76.1 µM) | 16 (≈ 38.1 µM) | 64 (≈ 152 µM) | 32 (≈ 76.1 µM) | MBC [10]: 128 mg/L (≈ 304 µM); MIC [10]: 32 mg/L (≈ 76.1 µM)
4 | COc1ccc2nc(NC(=O)CSc3nc4cc(C)ccc4[nH]3)sc2c1 [Compound C19, N-(6-methoxy-1,3-benzo-thiazol-2-yl)-2-[(5-methyl-1H-benz-imidazol-2-yl)thio]acetamide] | 0.64 | 128 (≈ 333 µM) | 8 (≈ 20.8 µM) | 8 (≈ 20.8 µM) | 16 (≈ 41.6 µM) | 16 (≈ 41.6 µM) | 32 (≈ 83.2 µM) | 32 (≈ 83.2 µM) | 64 (≈ 166 µM) | 32 (≈ 83.2 µM) | 32 (≈ 83.2 µM) | 32 (≈ 83.2 µM) | 64 (≈ 166 µM) | 64 (≈ 166 µM) | 64 (≈ 166 µM) | 32 (≈ 83.2 µM) | 32 (≈ 83.2 µM) | 16 (≈ 41.6 µM) | 64 (≈ 166 µM) | 32 (≈ 83.2 µM) | MBC [10]: 128 mg/L (≈ 333 µM); MIC [10]: 32 mg/L (≈ 83.2 µM)
